pIC50: −log10 of the molar value. One block for each compound: values may come before it.
How the values were obtained:
cPLA2 = biological target: T1, cPLA2 (Homo sapiens, UniProt P47712); assay: cPLA2 Inhibitory Activity; format: biochemical; conditions: 1-palmitoyl-2-[14C]-arachidonoyl-sn-glycero-3-phosphocholine 2.5 μM, sn-1,2-dioleoylglycerol 1.25 μM; pH 7.5, 15 min at 37° C.
T1 sequence (P47712 1-749): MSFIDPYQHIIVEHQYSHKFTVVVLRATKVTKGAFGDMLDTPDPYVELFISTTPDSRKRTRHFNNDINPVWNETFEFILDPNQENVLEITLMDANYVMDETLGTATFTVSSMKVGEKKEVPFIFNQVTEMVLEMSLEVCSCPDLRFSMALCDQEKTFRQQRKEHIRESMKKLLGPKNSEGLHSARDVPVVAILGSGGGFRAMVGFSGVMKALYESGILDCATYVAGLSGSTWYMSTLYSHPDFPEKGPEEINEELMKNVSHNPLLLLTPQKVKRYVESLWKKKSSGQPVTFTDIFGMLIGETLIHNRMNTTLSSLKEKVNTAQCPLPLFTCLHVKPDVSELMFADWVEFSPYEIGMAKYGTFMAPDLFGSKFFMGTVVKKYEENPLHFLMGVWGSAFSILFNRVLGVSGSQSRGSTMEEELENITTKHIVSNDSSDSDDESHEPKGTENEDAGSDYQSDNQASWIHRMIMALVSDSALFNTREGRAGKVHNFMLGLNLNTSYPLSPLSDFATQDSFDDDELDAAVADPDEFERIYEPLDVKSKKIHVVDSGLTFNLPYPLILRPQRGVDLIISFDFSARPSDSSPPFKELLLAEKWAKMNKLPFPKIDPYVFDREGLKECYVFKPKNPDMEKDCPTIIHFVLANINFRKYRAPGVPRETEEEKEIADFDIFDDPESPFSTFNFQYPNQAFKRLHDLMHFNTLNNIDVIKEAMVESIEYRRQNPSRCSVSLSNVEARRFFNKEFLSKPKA
How it was run: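 Radiometric assay in 50 mM HEPES pH 7.5 with 1 mM CaCl2, 150 mM NaCl, 0.1 mg/ml BSA and 1.7 mM DTT; compound and substrate added, reaction started with enzyme, 15 min at 37° C. Released fatty acids extracted (Dole method), counted by liquid scintillation versus no-compound control.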

[1] = test system: production of prostaglandin E2 by human fibroblasts; assay: Inhibition of Production of Prostaglandin E2 in Human Fibroblasts (IL-1 stimulation); format: cell-based; conditions: Fibroblast; human fibroblasts under stimulation with IL-1
How it was run: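 Human fibroblasts stimulated with IL-1, with prostaglandin E2 production measured in the presence of compound as a cellular read-out of cPLA2 inhibition.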

SMILES: O=C1NC(=O)/C(=C/c2ccc(C(=O)NC[C@@H]3C[C@@H](OCc4ccccc4-c4ccccc4)CN3C(=O)c3ccccc3C(=O)c3ccc(F)cc3)cc2)S1 [Compound A-16]
- pIC50 (cPLA2): 7.10
- pIC50 [1]: 6.59

SMILES: O=C1NC(=O)/C(=C/c2ccc(C(=O)NC[C@@H]3C[C@@H](OCc4ccccc4Oc4ccccc4)CN3C(=O)c3ccccc3C(=O)c3ccc(F)cc3)cc2)S1 [Compound A-48]
- pIC50 (cPLA2): 7.05
- pIC50 [1]: 6.21

SMILES: CCN(CC)c1cccc(O[C@@H]2C[C@@H](CNC(=O)c3ccc(/C=C4\SC(=O)NC4=O)cc3)N(C(=O)c3ccccc3C(=O)c3ccc(F)cc3)C2)c1 [Compound A-89]
- pIC50 (cPLA2): 7.02
- pIC50 [1]: 6.31

SMILES: O=C1NC(=O)/C(=C/c2ccc(C(=O)NC[C@@H]3C[C@@H](Oc4cccc(-c5ccc6ccccc6c5)c4)CN3C(=O)c3ccccc3C(=O)c3ccc(F)cc3)cc2)S1 [Compound A-84]
- pIC50 (cPLA2): 7.48
- pIC50 [1]: 6.60

SMILES: O=C1NC(=O)/C(=C/c2ccc(C(=O)NC[C@@H]3C[C@@H](OCc4ccccc4-c4ccccc4)CN3C(=O)c3cccc4c3C(=O)c3ccccc3-4)cc2)S1 [Compound A-26]
- pIC50 (cPLA2): 6.00
- pIC50 [1]: 6.77

SMILES: CC(C)c1ccccc1-c1ccccc1O[C@@H]1C[C@@H](CNC(=O)c2ccc(/C=C3\SC(=O)NC3=O)cc2)N(C(=O)c2ccccc2C(=O)c2ccc(F)cc2)C1 [Compound A-115]
- pIC50 (cPLA2): 8.00
- pIC50 [1]: 5.34

SMILES: O=C1NC(=O)/C(=C/c2ccc(C(=O)NC[C@@H]3C[C@@H](Oc4cccc5c4CCCC5)CN3C(=O)c3ccccc3C(=O)c3ccc(F)cc3)cc2)S1 [Compound A-77]
- pIC50 (cPLA2): 7.00
- pIC50 [1]: 6.46

SMILES: O=C1NC(=O)/C(=C/c2ccc(C(=O)NC[C@@H]3C[C@@H](OCc4ccccc4-c4cc5ccccc5o4)CN3C(=O)c3ccccc3C(=O)c3ccc(F)cc3)cc2)S1 [Compound A-40]
- pIC50 (cPLA2): 7.44
- pIC50 [1]: 6.21

SMILES: O=C1NC(=O)/C(=C/c2ccc(C(=O)NC[C@@H]3C[C@@H](OCc4ccccc4-c4ccccc4)CN3C(=O)c3ncccc3C(=O)c3ccccc3)cc2)S1 [Compound A-11]
- pIC50 (cPLA2): 6.07
- pIC50 [1]: 6.64

SMILES: O=C1NC(=O)/C(=C/c2ccc(C(=O)NC[C@@H]3C[C@@H](Oc4ccc5cc(-c6ccccc6)ccc5c4)CN3C(=O)c3ccccc3C(=O)c3ccc(F)cc3)cc2)S1 [Compound A-79]
- pIC50 (cPLA2): 7.70
- pIC50 [1]: 6.51

SMILES: COc1ccccc1-c1ccccc1O[C@@H]1C[C@@H](CNC(=O)c2ccc(/C=C3\SC(=O)NC3=O)cc2)N(C(=O)c2ccccc2C(=O)c2ccc(F)cc2)C1 [Compound A-107]
- pIC50 (cPLA2): 7.39
- pIC50 [1]: 5.96

More lines, main results first:

- pIC50 (cPLA2): 6.12
SMILES: O=C1NC(=S)S/C1=C\c1ccc(S(=O)(=O)NC[C@@H]2C[C@@H](SCc3ccccc3-c3ccccc3)CN2C(=O)c2ccccc2C(=O)c2ccc(F)cc2)s1 [Compound I-10]
- pIC50 [1]: 6.49

- pIC50 (cPLA2): 6.46
SMILES: O=C1NC(=O)/C(=C/c2ccc(COC[C@@H]3C[C@@H](OCc4ccccc4-c4ccccc4)CN3C(=O)c3ccccc3C(=O)c3ccc(F)cc3)cc2)S1 [Compound C-1]
- pIC50 [1]: 5.64

- pIC50 (cPLA2): 6.62
SMILES: O=C1NC(=O)/C(=C/c2ccc(S(=O)(=O)NC[C@@H]3C[C@@H](SCc4ccccc4-c4ccccc4)CN3C(=O)c3ccccc3C(=O)c3ccc(F)cc3)s2)S1 [Compound I-9]
- pIC50 [1]: 5.74

- pIC50 (cPLA2): 7.24
SMILES: O=C1NC(=O)/C(=C/c2ccc(C(=O)NC[C@@H]3C[C@@H](COc4ccccc4-c4ccccc4)CN3C(=O)c3ccccc3C(=O)c3ccc(F)cc3)cc2)S1 [Compound O-2]
- pIC50 [1]: 6.64

- pIC50 (cPLA2): 7.10
SMILES: CC(C)CN(Cc1ccccc1)[C@@H]1C[C@@H](CNC(=O)/C=C/c2ccc(/C=C3\SC(=O)NC3=O)cc2)N(C(=O)c2ccccc2C(=O)c2ccc(F)cc2)C1 [Compound M-18]
- pIC50 [1]: 5.06

- pIC50 (cPLA2): 6.89
SMILES: O=C1NC(=S)S/C1=C\c1ccc(NC(=O)[C@@H]2C[C@@H](OCc3ccccc3-c3ccccc3)CN2C(=O)c2ccccc2C(=O)c2ccc(Cl)cc2)cc1 [Compound B-4]
- pIC50 [1]: 5.25

— US6147100A, “Pyrrolidine derivatives having phospholipase A2 inhibitory activity” (Shionogi & Co., Ltd., priority 1997, dated 2000)
